What was measured:
caspase-9 = assay: FAM-FLICA caspase-9 activation, flow cytometry; type: cell-based, human; details: A2780, 72 h at 72 h IC50 dose, compared to controls
Method: (§1) In addition, caspase-3, caspase-8, and caspase-9 activation was assessed in treated and untreated cells. Likewise, cells were trypsinized, washed with PBS, and suspended in FAM-FLICATM caspase solution (FAM-DEVD-FMK caspase FLICA kit, ImmunoChemistry Technologies, MN 55431 USA) for 30 min at 37 °C. Cells were then washed twice with PBS and analyzed using a FACSCantoII flow cytometer (BD Biosciences, New Jersey, USA).

AKT = assay: Western blot of phospho(Ser473)-AKT and total AKT; type: cell-based, human; details: A2780, 24 h at 72 h IC50 dose, vs controls
Method: (§2) After drug treatments, cells were lysed in RIPA buffer supplemented with a cocktail of protease and phosphatase inhibitors. […] To favor the electrophoretic separation, 25% sample loading buffer (SLB) was added to the cell lysates. Here, 20 µg samples of proteins from controls and treated cells were loaded on 4–20% pre-cast SDS-PAGE gels and blotted onto PVDF membranes. Primary antibodies Bcl-2 (1:1000 dilution,#sc-7382, Santa Cruz, Dallas, Texas USA), Bax (1:1000 dilution, #sc-493, Santa Cruz), OXPHOS cocktail (1:1000 dilution, #ab110413, AbCam, Cambridge, UK), citrate synthase (1:1000 dilution, #sc-515640, Santa Cruz), ASK1 (1:1000 dilution, #sc-390275, Santa Cruz), phospho(Thr838)-ASK1 (1:1000 dilution, #CPA6042, Cohesion Biosciences, London, UK), AKT (1:1000 dilution, #sc-5298, Santa Cruz), and phospho(Ser473)-AKT (1:1000 dilution, #GTX128414, GeneTex, Irvine, CA, USA) were added to 2% non-fat dry milk in PBS-tween solution, while PVDF membranes were incubated overnight at 4 °C. Then, membranes were treated with horseradish peroxidase (HRP)-conjugated secondary antibodies (1:5000 dilution, Santa Cruz) and immunoreactive bands were detected with an ECL kit detection system on an Amersham Imager 600 (GE Healthcare, Chicago, IL, USA). For the quantification, a densitometric analysis of the bands was performed using ImageJ2 software version 2.0.0-rc-64 [23]. The intensities of the immunostained bands were normalized on the Coomassie brilliant blue R-250-stained total protein from the same PVDF membrane.

[1] = tested on: intracellular ROS in A2780 cells; assay: Intracellular ROS evaluation (H2DCF-DA, flow cytometry); type: cell-based, human; details: A2780, 48 h treatment at 72 h IC50 dose, H2DCFDA
Method: Within the cell, H2DCF-DA is de-acetylated by cellular esterases to a non-fluorescent compound, which becomes fluorescent once it is oxidized by cellular ROS into 2′,7′-dichlorofluorescein (DCF). Cells were trypsinized, washed, and incubated with 5 µM H2DCFDA for 30 min in the dark. Then, cells were washed again and immediately analyzed using a FACSCantoII (BD Biosciences, New Jersey, USA) flow cytometer.

OXPHOS complex II = assay: Western blot of OXPHOS complex II content; type: cell-based, human; details: A2780, 24 h at 72 h IC50 dose, vs controls
Method: as §2

Bax = assay: Western blot of Bax content; type: cell-based, human; details: A2780, 48 h at 72 h IC50 dose, compared to controls
Method: as §2

ASK1 = assay: Western blot of phospho(Thr838)-ASK1 and total ASK1; type: cell-based, human; details: A2780, 24 h at 72 h IC50 dose, vs controls
Method: as §2

[2] = tested on: A2780 human ovarian cancer cell line; assay: MTT antiproliferative assay on A2780 cells; type: cell-based; details: for IC50: 72 h of treatment, MTT assay, mean ± SD of three experiments, read-out: Half-maximal inhibitory concentration (IC50), A2780; for cytotoxic potency on A2780 higher than that of AuL12 (fold): from 72 h IC50 values on A2780
Method: (§3) The inhibition of cell proliferation by Au2phen, Auoxo6, and AuL12 on A2780 cell line was evaluated through MTT (3-(4,5-dimethylthiazol-2-yl)-2,5-diphenyltetrazolium bromide) test. Viable cells can convert MTT into formazan, which is coloured and detectable at 595 nm. Exponentially growing cells were seeded in 96 well-microplates at a density of 8 × 10^3 for 24 h and then gold compounds were added in fresh RPMI medium at concentrations ranging from 0.003 to 100 µM and incubated for 72 h. On the day of the test, cells were treated with 0.5 mg/mL MTT for 1 h at 37 °C. Following precipitation, blue formazan was dissolved in DMSO, and the optical density was read in a microplate reader interfaced with Microplate Manager/PV version 4.0 software (BioRad Laboratories, Hercules, USA). From the absorbance measurements, the half-maximal inhibitory concentration (IC50) value of each compound on A2780 cells was calculated using GraphPad Prism software version 6.0 (Graphpad Holdings, LLC, USA). The same protocol was applied on non-tumor cell lines, i.e., HEK and PNT1 cells.
The effects of these 72 h exposure IC50 doses on A2780 cell viability were also evaluated using an MTT time course assay at 12, 24, 48, and 72 h of drug exposure. The experimental protocol described above was applied.

[3] = tested on: mitochondrial membrane potential (Δψm) in A2780 cells; assay: Mitochondrial membrane potential (TMRM, flow cytometry); type: cell-based, human; details: A2780, 48 h exposure at 72 h IC50 dose, compared to controls
Method: The mitochondrial membrane potential (Δψm) was measured using tetramethylrhodamine methyl ester perchlorate (TMRM), a lipophilic potentiometric fluorescent dye that distributes between the mitochondria and cytosol in proportion to Δψm by virtue of its positive charge. The amount of accumulated dye in the mitochondria, and consequently the signal intensity, is a direct function of mitochondrial potential. […] Cells were then trypsinized, washed with PBS, and incubated with 100 nM TMRM for 20 min in the dark at 37 °C. After labelling, cells were washed again, suspended in PBS, and analyzed using a FACSCantoII flow cytometer (BD Biosciences, New Jersey, USA).

OXPHOS complex I = assay: Western blot of OXPHOS complex I content; type: cell-based, human; details: A2780, 24 h at 72 h IC50 dose, vs controls
Method: as §2

caspase-3 = assay: FAM-FLICA caspase-3 activation, flow cytometry; type: cell-based, human; details: A2780, 72 h at 72 h IC50 dose, compared to controls
Method: as §1

[4] = tested on: PNT1 (human normal prostate epithelium) cells; assay: MTT antiproliferative assay on PNT1 cells; type: cell-based; details: for IC50: 72 h of treatment, MTT assay, mean ± SD of three experiments, read-out: Half-maximal inhibitory concentration (IC50), PNT1; for IC50 for PNT1 higher than for A2780 (fold): ratio of 72 h IC50 PNT1 / A2780
Method: as §3

Cc1cccc2[n+]1[Au-]1([O][Au-]3([O]1)[n+]1c(C)cccc1-c1cccc(C)[n+]13)[n+]1c(C)cccc1-2.F[P-](F)(F)(F)(F)F.F[P-](F)(F)(F)(F)F [Auoxo6, ((6,6′-dimethyl-2,2′-bipyridine)2Au2(µ-O)2)(PF6)2]
cells showing caspase-9 activation (caspase-9): 75%
reduction of phospho-AKT levels (phosphorylated-AKT/total AKT ratio) (AKT): ~19%
ROS increase vs control cells [1]: about 2.8 fold
decrease of complex II protein content (OXPHOS complex II): 70%
increase of proapoptotic Bax protein (Bax): ~20%
enhancement of phospho-ASK1 levels (phosphorylated-ASK1/total ASK1 ratio) (ASK1): about 23%
IC50 [2]: 1.14 ± 0.18 µM
cytotoxic potency on A2780 higher than that of AuL12 (fold) [2]: 3.5 fold
cells bearing lower Δψm (low TMRM fluorescence) [3]: 17%
decrease of complex I protein content (OXPHOS complex I): 50%
caspase-3 activation (fluorescence intensity) (caspase-3): about 80%
IC50 [4]: 18.4 ± 0.3 µM
IC50 for PNT1 higher than for A2780 (fold) [4]: ~16 fold

Cc1ccc2ccc3ccc(C)[n+]4c3c2[n+]1[Au-]41[O][Au-]2([O]1)[n+]1c(C)ccc3ccc4ccc(C)[n+]2c4c31.F[P-](F)(F)(F)(F)F.F[P-](F)(F)(F)(F)F [Au2phen, ((2,9-dimethyl-1,10-phenanthroline)2Au2(µ-O)2)(PF6)2]
cells showing caspase-9 activation (caspase-9): 60%
reduction of phospho-AKT levels (phosphorylated-AKT/total AKT ratio) (AKT): about 12%
ROS increase vs control cells [1]: about 3.7 fold
decrease of complex II protein content (OXPHOS complex II): 66%
increase of proapoptotic Bax protein (Bax): about 29%
enhancement of phospho-ASK1 levels (phosphorylated-ASK1/total ASK1 ratio) (ASK1): about 15%
IC50 [2]: 0.8 ± 0.02 µM
cytotoxic potency on A2780 higher than that of AuL12 (fold) [2]: 5 fold
cells bearing lower Δψm (low TMRM fluorescence) [3]: about 26%
decrease of complex I protein content (OXPHOS complex I): 48%
caspase-3 activation (fluorescence intensity) (caspase-3): ~ 40%
IC50 [4]: 11.8 ± 0.25 µM
IC50 for PNT1 higher than for A2780 (fold) [4]: about 14 fold

CCOC(=O)CN(C)C1=[S+][Au-]([Br])([Br])[S]1 [AuL12, dibromo(ethylsarcosinedithiocarbamate)gold(III), reference compound]
cells showing caspase-9 activation (caspase-9): ~ 30%
reduction of phospho-AKT levels (phosphorylated-AKT/total AKT ratio) (AKT): ~17%
ROS increase vs control cells [1]: about 2.8 fold
decrease of complex II protein content (OXPHOS complex II): 40%
increase of proapoptotic Bax protein (Bax): ~34%
enhancement of phospho-ASK1 levels (phosphorylated-ASK1/total ASK1 ratio) (ASK1): about 25%
IC50 [2]: 4 ± 0.03 µM
cells bearing lower Δψm (low TMRM fluorescence) [3]: ~36%
decrease of complex I protein content (OXPHOS complex I): 28%
caspase-3 activation (fluorescence intensity) (caspase-3): ~ 40%
IC50 [4]: 12.3 ± 0.17 µM
IC50 for PNT1 higher than for A2780 (fold) [4]: 3 fold
